This is an account of results in PubChem BioAssay AID248 (DTP/NCI, 2004).

Values joined by “and” are separate entries in the source; they are usually repeats but may differ in a detail not shown here. Equal entries are not always repeated. Inconclusive results and toxic doses are left out. Square brackets hold non-standard residues; d marks the D form. Peptide text beside a SMILES is read from it. * marks the point of attachment. ξ: configuration not given here. Cbz = O=C(OCc1ccccc1)*; ξS = NC(CO)C(=O)O

For the test, the system named is L1210 leukemia ip in BDF1 mice, survival T/C. Kind of test: NCI In Vivo Anticancer Drug Screen. Data for tumor model L1210 Leukemia (intraperitoneal) in B6D2F1 (BDF1) mice. Conditions: endpoint: mean survival time, higher = longer survival. Put shortly: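 Antitumor effect is assessed in tumor-bearing animals. Survival in the compound arm is compared with a vehicle-dosed control arm and expressed as their quotient.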

Setting [1] is: dose: 25.0 mg/kg/injection, schedule: Q01DX009 (ip), vehicle: saline.
Setting [2] is: dose: 50.0 mg/kg/injection, schedule: Q01DX009 (ip), vehicle: saline.
Setting [3] is: dose: 100.0 mg/kg/injection, schedule: Q01DX001 (ip), vehicle: saline with Tween-80.
Where [4] appears, read: dose: 100.0 mg/kg/injection, schedule: Q01DX009 (ip), vehicle: saline with Tween-80.
[5] abbreviates: dose: 100.0 mg/kg/injection, schedule: Q04DX003 (ip), vehicle: saline with Tween-80.
[6] abbreviates: dose: 200.0 mg/kg/injection, schedule: Q01DX001 (ip), vehicle: saline with Tween-80.
[7] abbreviates: dose: 200.0 mg/kg/injection, schedule: Q04DX002 (ip), vehicle: saline with Tween-80.
The mark [8] stands for this setting: dose: 200.0 mg/kg/injection, schedule: Q04DX003 (ip), vehicle: saline with Tween-80.
The mark [9] stands for this setting: dose: 400.0 mg/kg/injection, schedule: Q01DX001 (ip), vehicle: saline with Tween-80.
Setting [10] is: dose: 400.0 mg/kg/injection, schedule: Q04DX003 (ip), vehicle: saline with Tween-80.

`COc1ccc(Cl)cc1NC(=O)Oc1ccccc1C(N)=O`: the T/C under setting [1] was 106 % of control and 113 % of control; the T/C (dose: 25.0 mg/kg/injection, schedule: Q04DX002 (ip), vehicle: saline with Tween-80) is 104 % of control and 112 % of control; the T/C under setting [2] is 102 % of control; the T/C (dose: 50.0 mg/kg/injection, schedule: Q04DX002 (ip), vehicle: saline with Tween-80) was 102 % of control and 91 % of control; the T/C under setting [3] was 107 % of control; the T/C under setting [4] is 86 % of control. The T/C reads like this: (dose: 100.0 mg/kg/injection, schedule: Q01DX009 (ip), vehicle: saline) 98 % of control; under setting [5], 104 % of control; under setting [6], 108 % of control; under setting [7], 110 % of control.

On to `COc1cc([N+](=O)[O-])c2[nH]c(=O)ccc2c1`, for which the T/C was 97 % of control (dose: 100.0 mg/kg/injection, schedule: Q01DX001 (ip), vehicle: carboxymethylcellulose (CMC)); 94 % of control (dose: 200.0 mg/kg/injection, schedule: Q01DX001 (ip), vehicle: carboxymethylcellulose (CMC)); 97 % of control (dose: 400.0 mg/kg/injection, schedule: Q01DX001 (ip), vehicle: carboxymethylcellulose (CMC)).

As to `O=[N+]([O-])c1cccc(/C(Cl)=C/CCl)c1`, the T/C runs as follows: (dose: 50.0 mg/kg/injection, schedule: Q01DX001 (ip), vehicle: Klucel (hydroxypropylcellulose) (HPC)) 98 % of control; (dose: 100.0 mg/kg/injection, schedule: Q01DX001 (ip), vehicle: Klucel (hydroxypropylcellulose) (HPC)) 101 % of control; (dose: 200.0 mg/kg/injection, schedule: Q01DX001 (ip), vehicle: Klucel (hydroxypropylcellulose) (HPC)) 97 % of control.

As for `CC(=O)NC1CCc2ccccc2-c2cccc(=O)cc21` (configuration not stated), the T/C is 108 % of control (dose: 0.1 mg/kg/injection, schedule: Q01DX009 (ip), vehicle: Klucel (hydroxypropylcellulose) (HPC)); 113 % of control and 124 % of control (dose: 0.2 mg/kg/injection, schedule: Q01DX009 (ip), vehicle: Klucel (hydroxypropylcellulose) (HPC)); 118 % of control (dose: 0.39 mg/kg/injection, schedule: Q01DX009 (ip), vehicle: Klucel (hydroxypropylcellulose) (HPC)); 86 % of control (dose: 0.78 mg/kg/injection, schedule: Q01DX009 (ip), vehicle: Klucel (hydroxypropylcellulose) (HPC)); 116 % of control (dose: 0.78 mg/kg/injection, schedule: Q01DX009 (ip), vehicle: saline).

As to `CSc1cccc(Cl)c1`, the T/C is 100 % of control (dose: 75.0 mg/kg/injection, schedule: Q01DX001 (ip), vehicle: saline) and 101 % of control (dose: 150.0 mg/kg/injection, schedule: Q01DX001 (ip), vehicle: saline).

For `COc1ccc(NC(=S)/C(=C(/[O-])c2ccc(C)cc2)[n+]2ccccc2)cc1`, the T/C is, setting by setting: under setting [3], 92 % of control; (dose: 100.0 mg/kg/injection, schedule: Q04DX002 (ip), vehicle: saline with Tween-80) 95 % of control and 96 % of control; under setting [5], 105 % of control and 108 % of control and 90 % of control; under setting [6], 102 % of control; under setting [7], 97 % of control and 110 % of control; under setting [8], 93 % of control and 98 % of control and 105 % of control. Besides, the T/C by setting is: under setting [9], 94 % of control; (dose: 400.0 mg/kg/injection, schedule: Q04DX002 (ip), vehicle: saline with Tween-80) 98 % of control and 104 % of control; under setting [10], 93 % of control and 95 % of control and 91 % of control.

Take `O=c1[nH]c2ccc(F)cc2c(=O)o1`: the T/C runs as follows: (dose: 75.0 mg/kg/injection, schedule: Q01DX009 (ip), vehicle: saline) 107 % of control; (dose: 150.0 mg/kg/injection, schedule: Q01DX009 (ip), vehicle: saline) 93 % of control; (dose: 300.0 mg/kg/injection, schedule: Q01DX009 (ip), vehicle: saline) 94 % of control.

For `CC(C)(Cl)N=Nc1ccc([N+](=O)[O-])cc1[N+](=O)[O-]`, the T/C under setting [5] was 96 % of control, the T/C under setting [8] was 98 % of control and the T/C under setting [10] is 88 % of control.

`CC(C)(NC(=O)N(CCCl)N=O)C(=O)O`: the T/C (dose: 15.0 mg/kg/injection, schedule: Q01DX001 (ip), vehicle: saline with Tween-80) is 103 % of control; the T/C (dose: 23.0 mg/kg/injection, schedule: Q01DX001 (ip), vehicle: saline with Tween-80) is 115 % of control; the T/C (dose: 36.0 mg/kg/injection, schedule: Q01DX001 (ip), vehicle: saline with Tween-80) is 119 % of control; the T/C (dose: 119.0 mg/kg/injection, schedule: Q01DX001 (ip), vehicle: saline with Tween-80) was 227 % of control; the T/C (dose: 178.0 mg/kg/injection, schedule: Q01DX001 (ip), vehicle: saline with Tween-80) was 339 % of control; the T/C (dose: 266.0 mg/kg/injection, schedule: Q01DX001 (ip), vehicle: saline with Tween-80) is 123 % of control. In addition, the T/C under setting [9] was 352 % of control.

Take `O=C(C[n+]1cccc(C(=O)Nc2ccccc2)c1)Nc1ccccc1`: the T/C (dose: 100.0 mg/kg/injection, schedule: Q04DX003 (ip), vehicle: saline) was 95 % of control.

In the case of `OCCN(CCO)c1cc(O)cc(O)c1`, the T/C by setting is: under setting [4], 98 % of control; under setting [5], 98 % of control; (dose: 200.0 mg/kg/injection, schedule: Q01DX009 (ip), vehicle: saline with Tween-80) 96 % of control; under setting [8], 91 % of control; (dose: 400.0 mg/kg/injection, schedule: Q01DX009 (ip), vehicle: saline with Tween-80) 96 % of control; under setting [10], 102 % of control.

Turning to `COC(=O)C(CO)NC(=O)CNC(=O)OCc1ccccc1` (stereo not drawn) (Cbz-Gly-[ξS]-OMe), the T/C by setting is: (dose: 100.0 mg/kg/injection, schedule: Q04DX003 (ip), vehicle: water) 98 % of control; (dose: 200.0 mg/kg/injection, schedule: Q04DX003 (ip), vehicle: water) 94 % of control; (dose: 400.0 mg/kg/injection, schedule: Q04DX003 (ip), vehicle: water) 96 % of control.

`COc1cc(C)c2ccc3ccccc3c2n1`: the T/C runs as follows: (dose: 100.0 mg/kg/injection, schedule: Q01DX001 (ip), vehicle: other) 93 % of control; (dose: 200.0 mg/kg/injection, schedule: Q01DX001 (ip), vehicle: other) 95 % of control; (dose: 400.0 mg/kg/injection, schedule: Q01DX001 (ip), vehicle: other) 97 % of control.

Regarding `CCN=C(N)N=C(N)N`, the T/C was 96 % of control (dose: 25.0 mg/kg/injection, schedule: Q01DX001 (ip), vehicle: saline); 106 % of control (dose: 50.0 mg/kg/injection, schedule: Q01DX001 (ip), vehicle: saline); 102 % of control (dose: 100.0 mg/kg/injection, schedule: Q01DX001 (ip), vehicle: saline).

`c1ccc(C[n+]2ccc3ccccc3c2)cc1`: the T/C is, setting by setting: (dose: 6.25 mg/kg/injection, schedule: Q01DX009 (ip), vehicle: saline with Tween-80) 95 % of control; (dose: 6.25 mg/kg/injection, schedule: Q04DX003 (ip), vehicle: saline with Tween-80) 107 % of control; (dose: 10.0 mg/kg/injection, schedule: Q04DX003 (ip), vehicle: saline) 105 % of control; (dose: 12.5 mg/kg/injection, schedule: Q01DX009 (ip), vehicle: saline with Tween-80) 103 % of control; (dose: 12.5 mg/kg/injection, schedule: Q01DX009 (ip), vehicle: saline) 112 % of control; (dose: 12.5 mg/kg/injection, schedule: Q04DX003 (ip), vehicle: saline with Tween-80) 98 % of control. Further, the T/C reads like this: (dose: 20.0 mg/kg/injection, schedule: Q04DX003 (ip), vehicle: saline) 92 % of control; (dose: 25.0 mg/kg/injection, schedule: Q01DX009 (ip), vehicle: saline with Tween-80) 111 % of control; under setting [1], 107 % of control; (dose: 25.0 mg/kg/injection, schedule: Q04DX003 (ip), vehicle: saline with Tween-80) 91 % of control; (dose: 40.0 mg/kg/injection, schedule: Q04DX003 (ip), vehicle: saline) 94 % of control; under setting [2], 104 % of control. Also, for the setting “dose: 50.0 mg/kg/injection, schedule: Q04DX003 (ip), vehicle: saline”, the T/C was 95 % of control.

Turning to `N=C1SCc2c1sc1ccccc21`, the T/C reads like this: (dose: 100.0 mg/kg/injection, schedule: Q04DX003 (ip), vehicle: Klucel (hydroxypropylcellulose) (HPC)) 117 % of control; (dose: 200.0 mg/kg/injection, schedule: Q04DX003 (ip), vehicle: Klucel (hydroxypropylcellulose) (HPC)) 104 % of control; (dose: 400.0 mg/kg/injection, schedule: Q04DX003 (ip), vehicle: Klucel (hydroxypropylcellulose) (HPC)) 103 % of control.
